Measurements taken from patent publication US8178119B2, “Method for the acaricidal finishing of textile materials” (Sanitized AG, priority 2004, dated 2012).

Columns and labels:
Assay type in all cases: in vivo
house dust mites [1] = test: Effect against house dust mites, method not stated (one of the two methods); details: for cuts in the number of mites: without zinc pyrithione, at concentrations normally used for antimicrobial finishing, reduction to zero mites not quite achieved; for growth in the population of mites by a factor: control factor 2.6
Excerpt: On polyurethane foams based on polyester polyol, 2000 ppm of zinc pyrithione allowed a growth in the population of mites by a factor of 1.6, which is only insignificantly less than the corresponding control sample at a factor of 2.6. In the case of plasticized PVC, even 3000 ppm of zinc pyrithione allowed a growth in the population of mites by a factor of 1.4, while the PVC control sample returned a growth of again by a factor of 2.6. Both values are insufficient for the protection of the finished articles against colonization by mites, but they do form the basis for enhancement of the protection without the complete effect having to be supplied by the other active, permethrin for example.
(§1) Testing of the effect against house dust mites was carried out in the experiments according to one of the two methods described hereinbelow: • 1. The textile sample is cut to a size of 8×8 cm and placed on a glass plate of the same size. About 50 house dust mites in the adult stage, which were counted under the microscope, were placed in the center of the sample. Other stages were likewise present of course but are not counted. Some food (see method 2) is added. A 5 mm thick rubber plate with a 30 mm diameter hole in the middle is placed on the sample. The hole is covered from the top with a filter paper, and a metal plate with a hole in the middle is placed on the filter paper such that the hole is congruently positioned above the hole in the rubber plate. The sample plates thus prepared are fixed with clips and are then incubated for 6 or 8 weeks in an incubator at saturated humidity at 25° C. After the period of 6 or 8 weeks, the living adult mites were again counted under the microscope. In this method, the change in the number of mites compared with the initial value is calculated. The test is carried out in duplicate. • 2. The AFNOR NF G 39-011 test method, as carried out for example by TEC Laboratory, F-64600 Anglet, again utilizes 50 adult house dust mites, Dermatophagoides pteronyssinus, per test sample, which come from a stock culture from INRA Bordeaux and were bred for several years at 76% humidity at 25° C. in the complete absence of insecticides. The mites were fed on a mixture of wheat germ and brown brewer's yeast. The test is carried out at 17 to 23° C. The test duration is six weeks, and the mites are counted after they were driven out by application of heat. The test is carried out in quadruplicate. The reduction in the number of mites after six weeks compared with a non-finished control sample is determined.

house dust mites [2] = test: Method 1: live adult house dust mites counted on the textile sample after 6 or 8 weeks, change versus initial value
Protocol: as §1, with “The” for “Testing of the effect against house dust mites was carried out in the experiments according to one of the two methods described hereinbelow: • 1. The”, “After the period of 6 or 8 weeks, the living adult mites were again counted under the microscope.” left out, “[…],” for “F-64600 Anglet,”

[3] = system: Dermatophagoides pteronyssinus; test: Method 2: AFNOR NF G 39-011 test, reduction in number of mites after six weeks versus non-finished control; details: cotton/polyester mattress ticking
Protocol: as §1, with “The” for “Testing of the effect against house dust mites was carried out in the experiments according to one of the two methods described hereinbelow: • 1. The”, “After the period of 6 or 8 weeks, the living adult mites were again counted under the microscope.” left out, “[…],” for “F-64600 Anglet,”

| Molecule | cuts in the number of mites (house dust mites [1]) | reduction in the number of live mites, average (house dust mites [2]; Example 11: 1000 ppm on cotton, 6 weeks, control growth rate 273%) | reduction in the number of live mites (house dust mites [2]; Example 11: 1400 ppm on polyester furniture covering fabric, 6 weeks, control growth rate 273%) | live mites on samples after the test (house dust mites [2]; Example 3: 1.0% of aqueous dispersion comprising 15% zinc pyrithione padded with 3% NUVA TTC or 4% NUVA HPU or 4% NUVA HPC onto cotton, polyester or polyamide, cured 150° C. 90 seconds) | live mites on samples after the test (house dust mites [2]; Example 6: 0.4% of aqueous formulation comprising 48% zinc pyrithione padded with wetting agent and nonionized surfactant onto woven cotton, dried 180° C. 1 minute) | mite inhibition rate (MIR) compared with the non-finished control fabric, average ([3]; Example 5: 1.0% of formulation comprising 15% zinc pyrithione with 3% to 5% acrylate copolymers) | mites on samples after the test ([3]; Example 5: 1.2% of formulation comprising 15% zinc pyrithione with 3% to 5% acrylate copolymers) | mites on samples after the test ([3]; Example 5: 1.5% of formulation comprising 15% zinc pyrithione with 3% to 5% acrylate copolymers) | growth in the population of mites by a factor (house dust mites [1]; plasticized PVC, 3000 ppm of zinc pyrithione) | growth in the population of mites by a factor (house dust mites [1]; polyurethane foams based on polyester polyol, 2000 ppm of zinc pyrithione) |
| --- | --- | --- | --- | --- | --- | --- | --- | --- | --- | --- |
| CCCCCCCCn1sccc1=O [2-n-octylisothiazolin-3-one] | fairly good cuts in the number of mites | – | – | – | – | – | – | – | – | – |
| Oc1cc(Cl)ccc1Oc1ccc(Cl)cc1Cl [triclosan] | fairly good cuts in the number of mites | 57% | 38% | – | – | – | – | – | – | – |
| zinc pyrithione | – | – | – | no longer any live mites | no longer any live mites | 99.3% | completely free of mites | completely free of mites | 1.4 | 1.6 |
